Experiments:
BSJ-03-123 = compound: CC(=O)c1c(C)c2cnc(Nc3ccc(N4CCN(CCOCCOCCOCCNC(=O)COc5cccc6c5C(=O)N(C5CCC(=O)NC5=O)C6=O)CC4)cn3)nc2n(C2CCCC2)c1=O [BSJ-03-123]; assay: increase in dead-cell fraction, 72 h; higher = more death;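 note: breast cancer cell lines in 384-well plates, stained with Hoechst plus LIVE/DEAD far red dye and imaged, cells above an LDR intensity threshold counted dead, Hoechst-negative corpses included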
THZ1 [1] = compound: T1, CN(C)C/C=C/C(=O)Nc1ccc(C(=O)Nc2cccc(Nc3ncc(Cl)c(-c4c[nH]c5ccccc45)n3)c2)cc1 [THZ1]; assay: as above
[2] = compound: CCc1cnn2c(NCc3ccc[n+]([O-])c3)cc(N3CCCC[C@H]3CCO)nc12; assay: as above
LEE011/Ribociclib = compound: CN(C)C(=O)c1cc2cnc(Nc3ccc(N4CCNCC4)cn3)nc2n1C1CCCC1 [LEE011/Ribociclib]; assay: as above
THZ531 [3] = compound: T2, CN(C)C/C=C/C(=O)Nc1ccc(C(=O)N2CCC[C@@H](Nc3ncc(Cl)c(-c4c[nH]c5ccccc45)n3)C2)cc1 [THZ531]; assay: as above
YKL-5-124 = compound: C=CC(=O)Nc1ccc(C(=O)Nc2[nH]nc3c2CN(C(=O)N[C@H](CN(C)C)c2ccccc2)C3(C)C)cc1 [YKL-5-124]; assay: as above
Neratinib/HKI272 = compound: CCOc1cc2ncc(C#N)c(Nc3ccc(OCc4ccccn4)c(Cl)c3)c2cc1NC(=O)/C=C/CN(C)C [Neratinib/HKI272]; assay: as above
[4] = compound: CC(=O)c1c(C)c2cnc(Nc3ccc(N4CCNCC4)cn3)nc2n(C2CCCC2)c1=O; assay: as above
AZD1775 = compound: C=CCn1c(=O)c2cnc(Nc3ccc(N4CCN(C)CC4)cc3)nc2n1-c1cccc(C(C)(C)O)n1 [AZD1775]
THZ1 [5] = compound: T1, THZ1
Rucaparib = compound: CNCc1ccc(-c2[nH]c3cc(F)cc4c3c2CCNC4=O)cc1 [Rucaparib]
[6] = compound: CC(=O)Nc1cccc(-n2c(=O)n(C3CC3)c(=O)c3c(Nc4ccc(I)cc4F)n(C)c(=O)c(C)c32)c1
Saracatinib/AZD0530 = compound: CN1CCN(CCOc2cc(OC3CCOCC3)c3c(Nc4c(Cl)ccc5c4OCO5)ncnc3c2)CC1 [Saracatinib/AZD0530]
THZ531 [7] = compound: T2, THZ531
[8] = compound: CCCCOc1c(C(=O)c2c(F)cc(C)cc2F)c[nH]c2nncc1-2
[9] = compound: CO[C@@H](C)Cn1c(=O)n(C)c2cnc3ccc(-c4cncc(C(C)(C)O)c4)cc3c21
BVD523 = compound: CC(C)Nc1cc(-c2c[nH]c(C(=O)N[C@H](CO)c3cccc(Cl)c3)c2)c(Cl)cn1 [BVD523]
[10] = compound: COc1ccc2c(c1)[C@]1(C[C@H]1c1ccc3c(/C=C/c4ccc(CN5C[C@@H](C)O[C@@H](C)C5)cc4)n[nH]c3c1)C(=O)N2
Alpelisib/BYL719 = compound: Cc1nc(NC(=O)N2CCC[C@H]2C(N)=O)sc1-c1ccnc(C(C)(C)C(F)(F)F)c1 [Alpelisib/BYL719]
Cediranib/AZD2171 = compound: COc1cc2c(Oc3ccc4[nH]c(C)cc4c3F)ncnc2cc1OCCCN1CCCC1 [Cediranib/AZD2171]
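Throughout, for GR50, 72 h: breast cancer and non-malignant breast epithelial cell lines, Deep Dye Drop or Dye Drop imaging, nine half-log doses, GR normalized to time-zero plates and DMSO-only controls.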

For MDAMB453, the “increase in dead-cell fraction” value (BSJ-03-123; 0.001 µM) was -0.0008, the “increase in dead-cell fraction” value (BSJ-03-123; 0.003162 µM) was -0.0002 and the “increase in dead-cell fraction” value (BSJ-03-123; 0.01 µM) was -0.0018. For the same cell line, the “increase in dead-cell fraction” value (BSJ-03-123; 0.03162 µM) was 0.0081, the “increase in dead-cell fraction” value (BSJ-03-123; 0.1 µM) was 0.0016 and the “increase in dead-cell fraction” value (BSJ-03-123; 0.3162 µM) was 0.0031. The “increase in dead-cell fraction” value (BSJ-03-123; 1 µM) was 0.0138, the “increase in dead-cell fraction” value (BSJ-03-123; 3.162 µM) was 0.007 and the “increase in dead-cell fraction” value (BSJ-03-123; 10 µM) was 0.0618. The “increase in dead-cell fraction” value (THZ1 [1]; 0.0001 µM) was 0.0006, the “increase in dead-cell fraction” value (THZ1 [1]; 0.0003162 µM) was -0.0024 and the “increase in dead-cell fraction” value (THZ1 [1]; 0.001 µM) was -0.0042. For the same cell line, the “increase in dead-cell fraction” value (THZ1 [1]; 0.003162 µM) was 0.0021, the “increase in dead-cell fraction” value (THZ1 [1]; 0.01 µM) was 0.0161 and the “increase in dead-cell fraction” value (THZ1 [1]; 0.03162 µM) was 0.0525. For the same cell line, the “increase in dead-cell fraction” value (THZ1 [1]; 0.1 µM) was 0.133, the “increase in dead-cell fraction” value (THZ1 [1]; 0.3162 µM) was 0.101 and the “increase in dead-cell fraction” value (THZ1 [1]; 1 µM) was 0.122. The “increase in dead-cell fraction” value ([2]; 0.0001 µM) was 0.0187, the “increase in dead-cell fraction” value ([2]; 0.0003162 µM) was -0.0038 and the “increase in dead-cell fraction” value ([2]; 0.001 µM) was -0.0082. For the same cell line, the “increase in dead-cell fraction” value ([2]; 0.003162 µM) was -0.004, the “increase in dead-cell fraction” value ([2]; 0.01 µM) was 0.0474 and the “increase in dead-cell fraction” value ([2]; 0.03162 µM) was 0.251. The “increase in dead-cell fraction” value ([2]; 0.1 µM) was 0.309, the “increase in dead-cell fraction” value ([2]; 0.3162 µM) was 0.286 and the “increase in dead-cell fraction” value ([2]; 1 µM) was 0.318. The “increase in dead-cell fraction” value (LEE011/Ribociclib; 0.001 µM) was 0.0026, the “increase in dead-cell fraction” value (LEE011/Ribociclib; 0.003162 µM) was 0.0128 and the “increase in dead-cell fraction” value (LEE011/Ribociclib; 0.01 µM) was 0.0136. For the same cell line, the “increase in dead-cell fraction” value (LEE011/Ribociclib; 0.03162 µM) was 0.016, the “increase in dead-cell fraction” value (LEE011/Ribociclib; 0.1 µM) was 0.025 and the “increase in dead-cell fraction” value (LEE011/Ribociclib; 0.3162 µM) was 0.0275. For the same cell line, the “increase in dead-cell fraction” value (LEE011/Ribociclib; 1 µM) was 0.0212, the “increase in dead-cell fraction” value (LEE011/Ribociclib; 3.162 µM) was 0.0344 and the “increase in dead-cell fraction” value (LEE011/Ribociclib; 10 µM) was 0.05. The “increase in dead-cell fraction” value (THZ531 [3]; 0.0001 µM) was 0.0012, the “increase in dead-cell fraction” value (THZ531 [3]; 0.0003162 µM) was 0.0037 and the “increase in dead-cell fraction” value (THZ531 [3]; 0.001 µM) was 0.0069. The “increase in dead-cell fraction” value (THZ531 [3]; 0.003162 µM) was 0.0027, the “increase in dead-cell fraction” value (THZ531 [3]; 0.01 µM) was 0.0057 and the “increase in dead-cell fraction” value (THZ531 [3]; 0.03162 µM) was 0.0394. For the same cell line, the “increase in dead-cell fraction” value (THZ531 [3]; 0.1 µM) was 0.16, the “increase in dead-cell fraction” value (THZ531 [3]; 0.3162 µM) was 0.187 and the “increase in dead-cell fraction” value (THZ531 [3]; 1 µM) was 0.157. The “increase in dead-cell fraction” value (YKL-5-124; 0.001 µM) was 0.007, the “increase in dead-cell fraction” value (YKL-5-124; 0.003162 µM) was 0.013 and the “increase in dead-cell fraction” value (YKL-5-124; 0.01 µM) was 0.0243. The “increase in dead-cell fraction” value (YKL-5-124; 0.03162 µM) was 0.0344, the “increase in dead-cell fraction” value (YKL-5-124; 0.1 µM) was 0.0489 and the “increase in dead-cell fraction” value (YKL-5-124; 0.3162 µM) was 0.033. The “increase in dead-cell fraction” value (YKL-5-124; 1 µM) was 0.0346, the “increase in dead-cell fraction” value (YKL-5-124; 3.162 µM) was 0.0296 and the “increase in dead-cell fraction” value (YKL-5-124; 10 µM) was 0.275. The “increase in dead-cell fraction” value (Neratinib/HKI272; 0.0003162 µM) was 0.0316, the “increase in dead-cell fraction” value (Neratinib/HKI272; 0.001 µM) was 0.0419 and the “increase in dead-cell fraction” value (Neratinib/HKI272; 0.003162 µM) was 0.0613. For the same cell line, the “increase in dead-cell fraction” value (Neratinib/HKI272; 0.01 µM) was 0.0661, the “increase in dead-cell fraction” value (Neratinib/HKI272; 0.03162 µM) was 0.119 and the “increase in dead-cell fraction” value (Neratinib/HKI272; 0.1 µM) was 0.106. For the same cell line, the “increase in dead-cell fraction” value (Neratinib/HKI272; 0.3162 µM) was 0.177, the “increase in dead-cell fraction” value (Neratinib/HKI272; 1 µM) was 0.212 and the “increase in dead-cell fraction” value (Neratinib/HKI272; 3.162 µM) was 0.348. For the same cell line, the “increase in dead-cell fraction” value ([4]; 0.0003162 µM) was 0.0265, the “increase in dead-cell fraction” value ([4]; 0.001 µM) was 0.0374 and the “increase in dead-cell fraction” value ([4]; 0.003162 µM) was 0.016. The “increase in dead-cell fraction” value ([4]; 0.01 µM) was 0.0502, the “increase in dead-cell fraction” value ([4]; 0.03162 µM) was 0.0578 and the “increase in dead-cell fraction” value ([4]; 0.1 µM) was 0.115. For the same cell line, the “increase in dead-cell fraction” value ([4]; 0.3162 µM) was 0.124, the “increase in dead-cell fraction” value ([4]; 1 µM) was 0.123 and the “increase in dead-cell fraction” value ([4]; 3.162 µM) was 0.117. The “GR50, 72 h” value (AZD1775) was 0.112 µM, the “GR50, 72 h” value (THZ1 [5]) was 0.0116 µM and the “GR50, 72 h” value (Rucaparib) was 6.58 µM. The “GR50, 72 h” value [6] was 0.0339 µM, the “GR50, 72 h” value (Saracatinib/AZD0530) was 8.37 µM and the “GR50, 72 h” value (THZ531 [7]) was 0.0236 µM. For the same cell line, the “GR50, 72 h” value [8] was 0.811 µM, the “GR50, 72 h” value [9] was < 0.001 µM and the “GR50, 72 h” value (BVD523) was 7.79 µM. For the same cell line, the “GR50, 72 h” value [10] was 0.00348 µM, the “GR50, 72 h” value (Alpelisib/BYL719) was 0.538 µM and the “GR50, 72 h” value (Cediranib/AZD2171) was 2.79 µM.

Source: the supplement of paper PMC9663587
